Here are results for twelve compounds from US7468449B2, “Phenyl-furan compounds as vitamin D receptor modulators” (Eli Lilly and Company, priority 2003, dated 2008).

Each structure is given as a SMILES string. pEC50, pIC50: −log10 of the molar value. Values joined by “and” are separate entries in the source; they are usually repeats but may differ in a detail not shown here. Equal values may be shown once. Read-outs that look alike come from different tables or passages of the source.

In one series the target is T1, VDR (Homo sapiens, UniProt P11473).
T1 construct: the receptor expression vector pGal-4-VDR-LBD (10 ng); expressed in transfected cells; host or cells: Caco-2 cells
T1 sequence (P11473 127-423 limits assumed): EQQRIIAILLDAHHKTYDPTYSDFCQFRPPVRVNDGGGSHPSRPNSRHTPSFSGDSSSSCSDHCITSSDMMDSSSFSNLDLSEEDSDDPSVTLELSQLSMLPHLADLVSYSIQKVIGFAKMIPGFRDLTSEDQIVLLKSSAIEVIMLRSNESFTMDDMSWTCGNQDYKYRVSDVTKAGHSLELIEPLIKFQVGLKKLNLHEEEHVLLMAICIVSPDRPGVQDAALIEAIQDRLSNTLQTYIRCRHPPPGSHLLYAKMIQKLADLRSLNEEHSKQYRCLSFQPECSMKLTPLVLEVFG
Briefly: VDR CTF (Caco-2 cell co-transfection) assay. As to conditions: Caco-2 cells, Gal-4-VDR-LBD co-transfection; Table 1. It is filed as cell-based. How it is done:
2. The Caco-2 Cell Co-transfection Assay:
The Caco-2 cell assay is an indicator for the undesirable condition of hypercalcemia. This co-transfection assay is a surrogate assay for in vivo calcemic activity of VDR ligands. […] Preferred assay results are greater than 1000 nM.
Step 4: FuGENE, DNA and Media Complex to-well plate • Add FuGENE-DNA-Media complex from step 3 to each plate • Incubate. […] Day 4: Luciferase Assay • Read the plates after drug treatment • Remove part of media from all the wells and leave remainder • Add Steady-Glo Luciferase Reagent mixture/wells • Incubate • Count each well using a Luminescence counter, Top Count NXT by Packard Set a delay between plates to reduce the background. (2) Materials and Method for The Caco-2 Cell Assay:
Caco-2 cells, grown in phenol red free, DMEM (Invitrogen, Carlsbad, Calif.) containing 10% charcoal-stripped FCS (Hyclone, Logan, Utah), were transfected with Fugene 6 reagent (Roche Diagnostics, Indianapolis, Ind.). Cells (5000/well) were plated 18 h before transfection in a 96 well plate. The Cells were transfected with Gal-4-responsive reporter pFRLuc (150 ng, Stratagene, La Jolla Calif.) and the receptor expression vector pGal-4-VDR-LBD (10 ng), along with Fugene 6 reagent (0.2 μl/well). The DNA-Fugene complex was formed by incubating the mixture for 30 min at room temperature. The cells were transfected in triplicate for 5 h, and treated with various concentrations of VDR ligands (form 0.01 nM to 10,000 nM concentration range) 18 h post-transfection. The luciferase activity was quantified using Steady-Glo reagent kit (Promega, Madison, Wis.) as per manufacturer's specifications.

The next series concerns rat osteocalcin promoter. Briefly: OCN (osteocalcin) promoter assay. It is filed as cell-based. As to conditions: RG-15 (ROS 17/2.8) cells, 48 hr treatment. The protocol:
3. The OCN (osteocalcin) Promoter Assay
The OCN Promoter Assay is an indicator and marker for osteoporosis. […] Preferred assay results are less than 50 nM.
(3) Materials and Method for The OCN Promoter Assay:
The activation of osteocalcin by VDR ligands was evaluated in a rat osteoblast-like cell line RG-15 (ROS 17/2.8) stably expressing rat osteocalcin promoter fused with luciferase reporter gene. […] After 24 hr, cells (in DMEM/F-12 medium +2% FBS) were treated with various concentrations of compounds, dissolved in DMSO. The final DMSO concentration remained at 0.01% (v/v). After 48 hr treatment, the medium was removed, cells were lysed with 50 μl of lysis buffer (From Luciferase reporter assay system, Roche Diagnostics, Indianapolis, Ind.) and assayed for luciferase activity using the Luciferase Reporter Gene Assay kit from Boehringer Mannheim as per manufacturer's specifications.

For another series, the system named is KERtr cells. Briefly: Keratinocyte proliferation assay. As to conditions: BrdU incorporation. It is filed as cell-based, Human. How it is done: 5. The Keratinocyte Proliferation Assay
This Assay is indicative for the treatment of psoriasis.
(5) The Keratinocyte Proliferation Assay:
KERtr cells (Human skin keratinocyte transformed with a retrovirus vector, obtained from ATCC) were plated in 96-well flat-bottomed plates (3000 cells/well) in 100 μl keratinocyte serum free medium supplemented with bovine pituitary extract in the absence of EGF (Life Technologies, Rockville, Md.) and incubated at 37° C. for two days. The cells were treated with various concentrations of VDR ligands (ten-fold serial dilution from 10,000 nM to 0.1 nM in triplicate), dissolved in 100 μl keratinocyte serum free medium supplemented with bovine pituitary extract in the absence of EGF and incubated at 37° C. for 72 hr. […] Potency values (IC50) values were determined as the concentration (nM) of compound that elicited a half-maximal response.
A general note: Incorporation of labelled thymidine or its analogues reports DNA synthesis.

Series [1] can be described thus: Mouse hypercalcemia assay. As to conditions: six day hypercalcemia test, oral gavage, serum ionized calcium.
Experimental: The Mouse Hypercalcemia Assay
The Mouse Hypercalcemia Assay is a six day hypercalcemia test for toxicity and selectivity. Acceptable test results are levels greater than 300 μg/kg/day. Preferred assay results are levels greater than 1000 μg/kg/day.
(4) Materials and Method for The Mouse Hypercalcemia Assay:
Weanling, virus-antibody-free, five to six weeks old female DBF mice (Harlan, Indianapolis, Ind.) are used for all the studies. Animals are allowed to acclimate to local vivarium conditions for 2 days. […] The animals then are divided into groups with 4-5 mice per group. Different doses of test compounds prepared in 10% Ethanol and 90% sesame oil are administered to mice orally via gavage for 6 days. 1α-25(OH)2D3 0.5 μg/kg/d was also given to one group of mice as the positive control. […] Raw data of group differences is assessed by analysis of variance (ANOVA) using Fisher's protected least significant difference (PLSD) where the significance level was P<0.05.
Another series concerns the target T2, RXR-VDR heterodimer (Homo sapiens, UniProt P11473).
T2 construct: Add the Gal-4-RXR-DEF and VP16-VDR-LBD; expressed in transfected cells; host or cells: SaOs-2 cells
T2 sequence (P11473 127-423 limits assumed): T1 sequence (P11473 127-423 limits assumed)
T2 sequence (P19793 201-462 partner limits assumed): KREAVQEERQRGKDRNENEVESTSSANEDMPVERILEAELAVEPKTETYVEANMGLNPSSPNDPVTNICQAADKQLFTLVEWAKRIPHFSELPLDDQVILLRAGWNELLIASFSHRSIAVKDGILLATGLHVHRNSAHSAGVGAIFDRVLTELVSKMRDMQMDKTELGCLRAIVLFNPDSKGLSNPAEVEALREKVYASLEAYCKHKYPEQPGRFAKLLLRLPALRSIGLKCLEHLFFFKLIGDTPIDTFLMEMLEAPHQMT
Briefly: RXR-VDR heterodimerization assay (SaOS-2 cells). The series is classed as cell-based. As to conditions: luciferase reporter, Table 1. An excerpt:
1. The RXR-VDR Heterodimer Assay:
This assay provides the VDR activity of a test compound.
(1) Materials and Method for RXR-VDR Heterodimerization Assay:
Transfection/Treatment Media: • D-MEM Low Glucose Without Phenol Red only
Flat well Plates: • Use well plate to plate cells • Use Deep well plate sterile to make up treatment media.
Luciferase Assay Reagent: • Use Steady-Glo Luciferase Reagent from Promega (Cat #E2550) Consists of: • a. E2533 Assay Substrate, lyopholized product and • b. E2543 Assay Buffer. • Thaw at room temperature • Store Day 1: Cell Plating: • Cell Harvesting • Aspirate media from culture flask, rinse cells with HBSS and aspirate. • Add trypsin and incubate. • When cells appear detached, resuspend cells in growth media. • Transfer into a new flask with fresh growth media for passaging the cells. • Plate well plates and two extra plates A. Cell Count • Mix the cell suspension using pipette • Use Hematocytometer to count the cells • Load cell suspension onto the hemocytometer chamber • Count cells.
Step 1: DNA and Media • Add plain DMEM media to tubes for mixing the DNA • Add the Reporter gene pFR-LUC • Add the Gal-4-RXR-DEF and VP16-VDR-LBD
Step 2: FuGENE and Media • Prepare plain DMEM media in a ubes for mixing PuGENE • Add FuGENE 6 Transection Reagent • Incubate
Step 3: FuGENE, DNA and Media Complex • Add FuGENE Media complex from step 2 to DNA Media complex from step1 • Incubate
Step 4: FuGENE, DNA and Media Complex to-well plate • Add FuGENE-DNA-Media complex from step 3 to each plate • Incubate. […] Day 4: Luciferase Assay • Read the plates after drug treatment • Remove part of media from all the wells and leave remainder • Add Steady-Glo Luciferase Reagent mixture/wells • Incubate • Count each well using a Luminescence counter, Top Count NXT by Packard Set a delay between plates to reduce the background. (2) Materials and Method for The Caco-2 Cell Assay: […]

Where [2] appears, read: Rattus norvegicus, 48 h, Table 1.
The mark [3] stands for this setting: 72 hr, Table 2, read-out: Kera. Prolif. IC50.
Setting [4] is: Rattus norvegicus, 48 h, Table 3 comparison compounds.
[5] abbreviates: Homo sapiens, Keratinocyte, 72 h, Table 4 comparison compounds, read-out: Kera. Prolif. IC50.

In the case of `CCC(CC)(c1ccc(OCC(O)C(C)(C)C)c(C)c1)c1ccc(C(=O)N(C)C)o1` (racemic) [Ex. 2, 3′-[4-(2-hydroxy-3,3-dimethylbutoxy)-3-methylphenyl]-3′-[5-dimethylaminocarbonyl-2-furanyl]pentane], the EC50 (in general, the midpoint of the concentration-response curve) at VDR was determined as 25 nM. Besides, the negative logarithm of the EC50 (pEC50) (commonly the EC50 on a negative log10 scale, so that one unit is a factor of ten) in the series on rat osteocalcin promoter (setting [2]) was 8.52.

For `CCC(CC)(c1ccc(OCC(O)C(C)(C)C)c(C)c1)c1ccc(C(=O)N(C)C)o1` (single isomer, unassigned) [Ex. 3, 3′-[4-(2-hydroxy-3,3-dimethylbutoxy)-3-methylphenyl]-3′-[5-dimethylaminocarbonyl-2-furanyl]pentane], the 50% effective concentration (EC50) on VDR came out at 391 nM. Besides, the pEC50 in the series on rat osteocalcin promoter (Table 1) was 8.34 and 8.60. Moreover, the pIC50 (in general, the negative decadic logarithm of the IC50, by convention in mol/L) in the series on KERtr cells (setting [3]) is 9.00. The “Mouse Hypercal” value in series [1] (Table 1) was above 2000 µg/kg/day.

For the compound `CCC(CC)(c1ccc(OCC(O)C(C)(C)C)c(C)c1)c1ccc(C(=O)N(C)C)o1` (single isomer, unassigned) [Ex. 4, 3′-[4-(2-hydroxy-3,3-dimethylbutoxy)-3-methylphenyl]-3′-[5-dimethylaminocarbonyl-2-furanyl]pentane], the concentration giving a half-maximal response (EC50) at VDR is 333 nM. Further, in the series with rat osteocalcin promoter (Table 1), the pEC50 was 8.70 and 9.00. Further, the negative logarithm of the IC50 (pIC50) in the series with KERtr cells (setting [3]) was 8.40. Further, the “Mouse Hypercal” value in series [1] (Table 1) is above 2000 µg/kg/day.

On VDR, `CCc1cc(C(CC)(CC)c2ccc(C(=O)N(C)C)o2)ccc1OCC(O)C(C)(C)C` (single isomer, unassigned; enantiomer 1) [Ex. 10, 3′-[4-(2-hydroxy-3,3-dimethyl-butoxy)-3-ethylphenyl]-3′-[5-dimethylaminocarbonyl-2-furanyl]pentane enantiomer 1] had a 50% effective concentration (EC50) of 191 nM. Besides, the negative-log IC50 (pIC50) with KERtr cells (setting [3]) was 8.15. In series [1] (Table 1), the “Mouse Hypercal” value is above 1000 µg/kg/day.

Compound `CCCc1cc(C(CC)(CC)c2ccc(C(=O)N(C)C)o2)ccc1OCC(O)C(C)(C)C` (single isomer, unassigned; enantiomer 1) [Ex. 12, 3′-[4-(2-hydroxy-3,3-dimethyl-butoxy)-3-n-propyl-phenyl]-3′-[5-dimethylaminocarbonyl-2-furanyl]pentane enantiomer 1] gave a pEC50 on RXR-VDR heterodimer of 6.73. This compound also returned an EC50 at VDR of 187 nM. Besides, the negative-log IC50 (pIC50) in the series on KERtr cells (setting [3]) is 7.77.

With `CCC(CC)(c1ccc(OCC(O)CO)c(C)c1)c1ccc(OCC(O)C(C)(C)C)c(C)c1` (stereo not drawn) [BB, 3-(4-{1-Ethyl-1-[4-(2-hydroxy-3,3-dimethyl-butoxy)-3-methyl-phenyl]-propyl}-2-methyl-phenoxy)-propane-1,2-diol, reference compound], the negative logarithm of the EC50 (pEC50) in the series on rat osteocalcin promoter (setting [4]) is 8.08. In the series with KERtr cells (setting [5]), the pIC50 was 8.00. Moreover, the “Mouse Hypercal μg/Kg/d” value in series [1] (Table 3 comparison compounds) is given as “>=20 μg/Kg/d”.

As to `Cc1cc(C2(c3ccc(OCC(=O)C(C)(C)C)c(C)c3)CCCCC2)ccc1OCC(=O)C(C)(C)C` [CC, 1-(4-{1-[4-(3,3-Dimethyl-2-oxo-butoxy)-3-methyl-phenyl]-cyclohexyl}-2-methyl-phenoxy)-3,3-dimethyl-butan-2-one, reference compound], the pEC50 in the series with rat osteocalcin promoter (setting [4]) is below 6.00.

On to `CCC(CC)(c1ccc(OCC(=O)C(C)(C)C)c(C)c1)c1ccc(OCC(=O)C(C)(C)C)c(C)c1` [DD, reference compound], for which the pEC50 in the series with rat osteocalcin promoter (setting [4]) is 7.51. Besides, in the series with KERtr cells (setting [5]), the pIC50 is 5.97. The “Mouse Hypercal” value in series [1] (Table 3 comparison compounds) is 1000 µg/kg/day.

For `CCC(CC)(c1ccc(OCC(=O)C(C)(C)C)c(C)c1)c1ccc(OC[C@H](O)C(C)(C)C)c(C)c1` [EE, reference compound], the pEC50 with rat osteocalcin promoter (setting [4]) was 6.47. The “Mouse Hypercal” value in series [1] (Table 3 comparison compounds) was 1000 µg/kg/day.

`CCN(CC)C(=O)c1ccc(C(CC)(CC)c2ccc(OCC(=O)C(C)(C)C)c(C)c2)o1` [Ex 7, 3′-[4-(2-oxo-3,3-dimethyl-butoxy)-3-methylphenyl]-3′-[5-diethylaminocarbonyl-2-furanyl]-pentane]: in the series with rat osteocalcin promoter (Table 1), the pEC50 was 7.02. Also, the negative-log IC50 (pIC50) with KERtr cells (setting [3]) is 7.64. Further, the “Mouse Hypercal” value in series [1] (Table 1) is above 9000 µg/kg/day.

For the compound `CCC(O)(CC)COc1ccc(C(CC)(CC)c2ccc(C(=O)N(C)C)o2)cc1C` [Ex 14, 3′-[4-(2-hydroxy-2-ethylbutoxy)-3-methylphenyl]-3′-[5-dimethylaminocarbonyl-2-furanyl]pentane], the figures for the pEC50 on RXR-VDR heterodimer and with rat osteocalcin promoter (setting [2]) were 6.98 and 7.00, respectively. Moreover, the concentration for a half-maximal effect (EC50) on VDR is 635 nM.

`CCC(C)c1cc(C(CC)(CC)c2ccc(C(=O)N(C)C)o2)ccc1OCC(=O)C(C)(C)C` (stereo not drawn) [Ex. 5, 3′-[4-(2-oxo-3,3-dimethylbutoxy)-3-(2-butyl)phenyl]-3′-[5-dimethylaminocarbonyl-furan-2-yl]pentane]: the pEC50 was 6.87 and 7.40 on RXR-VDR heterodimer; 7.36 in the series on rat osteocalcin promoter (Table 1); 7.48 in the series on rat osteocalcin promoter (setting [2]). This compound also gave a 50% effective concentration (EC50) on VDR of 129 nM. For the same compound, the negative logarithm of the IC50 (pIC50) in the series with KERtr cells (Homo sapiens, Keratinocyte, 72 h, Table 2, read-out: Kera. Prolif. IC50) is 6.00.
